This is an account of results in PMC12474298 (Viruses, 2025).

The target of experiment [1] is IMPα1 (human IMPα1ΔIBB) (Homo sapiens, UniProt P52292). The experiment is described as follows: Fluorescence polarization assay, FITC-NLS peptide vs importin α1ΔIBB.
For experiment [2], the target named is T1, IMPα3 (human IMPα3ΔIBB) (Homo sapiens, UniProt O00629).
T1 sequence (O00629 64-521 limits assumed): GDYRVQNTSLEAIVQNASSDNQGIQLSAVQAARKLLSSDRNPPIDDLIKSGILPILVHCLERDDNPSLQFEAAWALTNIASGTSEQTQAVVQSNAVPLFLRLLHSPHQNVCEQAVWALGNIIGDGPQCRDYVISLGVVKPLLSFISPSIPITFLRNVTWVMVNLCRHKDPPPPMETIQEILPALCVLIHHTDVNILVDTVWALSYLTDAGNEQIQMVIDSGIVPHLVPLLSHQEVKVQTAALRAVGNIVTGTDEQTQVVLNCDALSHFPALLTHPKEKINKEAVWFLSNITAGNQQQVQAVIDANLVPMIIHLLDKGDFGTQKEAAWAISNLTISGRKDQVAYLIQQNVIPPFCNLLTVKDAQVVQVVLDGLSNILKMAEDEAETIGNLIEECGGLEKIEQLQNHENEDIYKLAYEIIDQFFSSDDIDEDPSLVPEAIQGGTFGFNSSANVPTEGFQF
The experiment is described as follows: Fluorescence polarization assay, FITC-NLS peptide vs importin α3ΔIBB.

For the molecule `CC[C@H](C)[C@H](NC(=O)[C@H](CCCNC(=N)N)NC(=O)[C@H](CCCNC(=N)N)NC(=O)[C@H](CCCNC(=N)N)NC(=O)[C@H](CCCCN)NC(=O)[C@H](CCCCN)NC(=O)[C@@H](NC(=O)[C@H](CCC(=O)O)NC(=O)CCCCCNC(=S)Nc1ccc2c(c1)C(=O)OC21c2ccc(O)cc2Oc2cc(O)ccc21)[C@@H](C)O)C(=O)N[C@@H](CC(C)C)C(=O)N[C@@H](CCC(=O)O)C(N)=O` [HaHV1 UL36h NLS], the Kd turned out to be 226 nM in experiment [1] and 193 nM in experiment [2].
